Source: ChEMBL document CHEMBL1157969, “Stellettin A induces oxidative stress and apoptosis in HL-60 human leukemia and LNCaP prostate cancer cell lines” (J Nat Prod, 2006)
In brackets after ≈: the same amount, converted by molar mass. Activity calls are given as the source filed them. The calls are words filed in the database; no cut-off is given here.

Experiments:
HL-60 [1] = experiment: Cytotoxicity against human HL60 cells after 48 hrs by MTT assay; type: functional, cell-based; settings: HL-60, 48 h
LNCaP [2] = experiment: Induction of apoptosis in human LNCaP cells assessed as apoptotic bodies at 20 ug/mL after 24 hrs by fluorescence microscopy; type: functional
HL-60 [3] = experiment: Induction of apoptosis in human HL60 cells assessed as increase in FasL levels after 24 hrs by immunoblot; type: functional, cell-based
LNCaP [4] = experiment: Induction of apoptosis in human LNCaP cells assessed as decrease in Bcl-2 levels at 20 […] after 24 hrs by immunoblot; type: functional, cell-based
LNCaP [5] = experiment: Induction of apoptosis in human LNCaP cells assessed as increase in transcription of NADPH oxidase component p67phox after 5 hrs by immunoblot; type: functional, cell-based
LNCaP [6] = experiment: Induction of apoptosis in human LNCaP cells assessed as ROS generation; type: functional, cell-based
LNCaP [7] = experiment: Induction of apoptosis in human LNCaP cells assessed as increase in transcription of NADPH oxidase component p47phox after 5 hrs by immunoblot; type: functional, cell-based
HL-60 [8] = experiment: Induction of apoptosis in human HL60 cells assessed as mean fluorescence intensity of mitochondrial membrane potential dissipation at 1 ug/mL after 24 hrs; type: functional
HL-60 [9] = experiment: Induction of apoptosis in human HL60 cells assessed as apoptotic bodies at 4 ug/mL after 24 hrs by fluorescence microscopy; type: functional
HL-60 [10] = experiment: Induction of apoptosis in human HL60 cells assessed as increase in transcription of NOX5 after 5 hrs by immunoblot; type: functional, cell-based
LNCaP [11] = experiment: Induction of apoptosis in human LNCaP cells assessed as increase in caspase-3 levels at 20 […] after 24 hrs by immunoblot; type: functional, cell-based
HL-60 [12] = experiment: Induction of apoptosis in human HL60 cells assessed as mean fluorescence intensity of mitochondrial membrane potential dissipation at 4 ug/mL after 24 hrs; type: functional
LNCaP [13] = experiment: Cytotoxicity against human LNCaP cells after 48 hrs by MTT assay; type: functional, cell-based
HL-60 [14] = experiment: Induction of apoptosis in human HL60 cells at 4 ug/mL after 24 hrs in presence of antisense caspase-3 oligonucleotide; type: functional, cell-based
HL-60 [15] = experiment: Induction of apoptosis in human HL60 cells at 4 ug/mL after 24 hrs in presence of sense caspase-3 oligonucleotide; type: functional
HL-60 [16] = experiment: Induction of apoptosis in human HL60 cells assessed as increase in caspase-3 levels at 1 […] after 24 hrs by immunoblot; type: functional, cell-based
LNCaP [17] = experiment: Induction of apoptosis in human LNCaP cells assessed as increase in transcription of NADPH oxidase component p22phox after 5 hrs by immunoblot; type: functional, cell-based
HL-60 [18] = experiment: Induction of apoptosis in human HL60 cells assessed as increase in transcription of NADPH oxidase component gp91phox after 5 hrs by immunoblot; type: functional, cell-based
LNCaP [19] = experiment: Induction of apoptosis in human LNCaP cells assessed as increase in transcription of NADPH oxidase component gp91phox after 5 hrs by immunoblot; type: functional, cell-based
HL-60 [20] = experiment: Induction of apoptosis in human HL60 cells assessed as decrease in Bcl-2 levels at 1 […] after 24 hrs by immunoblot; type: functional, cell-based
HL-60 [21] = experiment: Induction of apoptosis in human HL60 cells assessed as increase in transcription of NOX1 after 5 hrs by immunoblot; type: functional, cell-based
LNCaP [22] = experiment: Induction of apoptosis in human LNCaP cells assessed as increase in FasL levels after 24 hrs by immunoblot; type: functional, cell-based
HL-60 [23] = experiment: Induction of apoptosis in human HL60 cells assessed as increase in transcription of NADPH oxidase component p22phox after 5 hrs by immunoblot; type: functional, cell-based
HL-60 [24] = experiment: Induction of apoptosis in human HL60 cells assessed as increase in transcription of NOX4 after 5 hrs by immunoblot; type: functional, cell-based
LNCaP [25] = experiment: Induction of apoptosis in human LNCaP cells assessed as mean fluorescence intensity of mitochondrial membrane potential dissipation at 20 ug/mL after 24 hrs; type: functional
HL-60 [26] = experiment: Induction of apoptosis in human HL60 cells assessed as increase in transcription of NADPH oxidase component p47phox after 5 hrs by immunoblot; type: functional, cell-based
HL-60 [27] = experiment: Induction of apoptosis in human HL60 cells assessed as increase in transcription of NADPH oxidase component p67phox after 5 hrs by immunoblot; type: functional, cell-based

C\C(=C/C=C/C(C)=C1/C(=O)C[C@H]2[C@@]3(C)CCC(=O)C(C)(C)[C@@H]3CC[C@]12C)c1ccc(C)c(=O)o1 [STELLETIN A]
IC50 (HL-60 [1]): 0.4 µg/mL (≈ 0.865 µM)
Activity (LNCaP [2]): <10%
Activity (HL-60 [3]): Dose-dependent effect
Activity (LNCaP [4]): inactive
Activity (LNCaP [5]): inactive
Activity (LNCaP [6]): Active
Activity (LNCaP [7]): inactive
Activity (HL-60 [8]): 23.28
Activity (HL-60 [9]): 56%
Activity (HL-60 [10]): inactive
Activity (LNCaP [11]): inactive
Activity (HL-60 [12]): 3.09
IC50 (LNCaP [13]): 120 µg/mL (≈ 259 µM)
Activity (HL-60 [14]): inactive
Activity (HL-60 [15]): 51%
Activity (HL-60 [16]): Active
Activity (LNCaP [17]): inactive
Activity (HL-60 [18]): Dose-dependent effect
Activity (LNCaP [19]): inactive
Activity (HL-60 [20]): Active
Activity (HL-60 [21]): inactive
Activity (LNCaP [22]): Dose-dependent effect
Activity (HL-60 [23]): Dose-dependent effect
Activity (HL-60 [24]): inactive
Activity (LNCaP [25]): 38.82
Activity (HL-60 [26]): Dose-dependent effect
Activity (HL-60 [27]): Dose-dependent effect
